The values that follow come from patent US12121596B2, “Near infrared fluorescent dyes, formulations and related methods” (Washington University, priority 2019, dated 2024).

Positions of bridges follow the written chain, without caps; N, C: chain ends. Non-standard residues stand in square brackets, D forms with d. Residues, ends and D or L forms follow the SMILES beside them. *: point of attachment. X1 = CC1(C)C(/C=C/C=C/C=C/C=C2/N(CCC(=O)*)c3ccc4ccccc4c3C2(C)C)=[N+](CCC(=O)[O-])c2ccc3ccccc3c21

The target of one assay is T1, ANXA3 (Homo sapiens, UniProt P12429).
T1 construct: purchased MyBioSource, Inc
T1 sequence (P12429 1-323): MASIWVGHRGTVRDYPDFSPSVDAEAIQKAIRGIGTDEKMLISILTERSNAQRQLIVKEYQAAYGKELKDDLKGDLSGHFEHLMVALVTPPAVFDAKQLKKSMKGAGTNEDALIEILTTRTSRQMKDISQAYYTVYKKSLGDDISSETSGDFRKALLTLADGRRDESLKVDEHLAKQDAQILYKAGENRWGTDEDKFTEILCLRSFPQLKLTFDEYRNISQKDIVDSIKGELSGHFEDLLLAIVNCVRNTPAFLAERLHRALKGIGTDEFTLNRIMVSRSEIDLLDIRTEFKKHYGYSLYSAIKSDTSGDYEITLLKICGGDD
The assay can be described thus: Microscale thermophoresis (MST), ANXA3 binding. The following applies: read-out: apparent Kd, ANXA3. The text has this: (§1) Recombinant proteins and antibodies. Recombinant annexin A2, annexin A2 with glutathione-S-transferase (GST) tag, annexin A1, and annexin A3 proteins were purchased from MyBioSource, Inc. (San Diego, CA, USA). Purified ANXA2 protein and purified pANXA2 protein were gifts from Dr. Gabriel Bimme (Beth Israel Deaconess Medical Center, Boston, MA). Rabbit monoclonal anti-annexin A2 antibody (D11G2, #8235), Rabbit monoclonal anti-Rab5 (C8B1, #3547), and rabbit monoclonal anti-Rab7 (D95F2, #936 7) primary antibodies were purchased from Cell Signaling Technology, Inc. (Danvers, MA, USA). Mouse monoclonal anti-β-actin 2A3 (sc-517582), mouse monoclonal anti-pANXA2 antibody (11.Tyr 24) (sc-135752), rabbit polyclonal anti-NOS2 (C-19, sc-649), rabbit polyclonal anti-ARG1 (H-52, sc-20150) antibodies, and protein A/G agarose were purchased from Santa Cruz Biotechnology, Inc. (Dallas, TX, USA). […]
(§2) MST was performed using the Monolith NT.115 (Nanotemper Technologies, Munich, Germany). […] Fluorescence was assessed in MST-2 buffer (50 mM Tris-HCl, pH 7.4; 150 mM NaCl; 10 mM MgCl2). […] The apparent Kd values were calculated from fragment concentration-dependent changes in normalized fluorescence (Fraction Bound) of LS301 after 5 seconds of thermophoresis based on mass action law using the MO Affinity Analysis v2.3 software.

The nature of assay [1]: Microscale thermophoresis (MST), calcium binding. The following applies: read-out: apparent dissociation constant (Kd), calcium. The text has this: Microscale thermophoresis (MST) studies biomolecular interactions in an aqueous environment without immobilization. MST exploits the directed movement of molecules along a microscopic temperature gradient. The movement rate and direction of movement depend on the species' size, charge, and solvation shell under study. Changes in this environment can change the thermophoretic movement of the species. MST can distinguish very small changes that occur, for example, when a small fluorescent molecule binds to the surface of a protein.
MST was performed using the Monolith NT.115 (Nanotemper Technologies, Munich, Germany). The appropriate agent(s) and LS301 stock samples were denatured in MST-1 buffer (50 mM Tris-HCl, pH 7.4; 150 mM NaCl; 10 mM MgCl2; 2% DMSO; 0.1% Tween-20; 4% SDS, 4 mM dithiothreitol (DTT)) at 97° C. for 10 min. Fluorescence was assessed in MST-2 buffer (50 mM Tris-HCl, pH 7.4; 150 mM NaCl; 10 mM MgCl2). The protein was prepared in MST-2 buffer, and 20 μL serial dilutions were made with protein concentration ranging from 3.05 pM to 50 nM (pANXA2) or 3.81 pM to 62.5 nM (ANXA2). All samples were loaded into NT.115 standard capillaries. […] The apparent Kd values were calculated from fragment concentration-dependent changes in normalized fluorescence (Fraction Bound) of LS301 after 5 seconds of thermophoresis based on mass action law using the MO Affinity Analysis v2.3 software.
In general terms: MST reads how a fluorescent partner responds to local heating, with and without ligand.

In another assay the target is ANXA2 (Homo sapiens, UniProt P07355). The experiment in a line: Microscale thermophoresis (MST), ANXA2 binding. Particulars: read-out: apparent Kd, ANXA2.
Sequence of ANXA2 (P07355 whole entry): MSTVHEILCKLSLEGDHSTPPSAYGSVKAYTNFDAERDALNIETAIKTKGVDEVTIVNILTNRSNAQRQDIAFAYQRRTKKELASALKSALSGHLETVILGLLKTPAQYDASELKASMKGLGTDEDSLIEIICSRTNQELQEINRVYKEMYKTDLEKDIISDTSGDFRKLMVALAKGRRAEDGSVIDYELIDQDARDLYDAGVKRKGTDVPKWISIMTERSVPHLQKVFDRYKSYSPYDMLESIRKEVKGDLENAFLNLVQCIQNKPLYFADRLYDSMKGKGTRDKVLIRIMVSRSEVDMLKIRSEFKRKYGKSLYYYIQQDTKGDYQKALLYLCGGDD
Source text: as §1, §2

The subject of assay [2] is fibroblast co-cultured with ANXA2-positive GFP-expressing 4T1 cells. The experiment in a line: Fibroblast and 4T1 co-culture uptake. Type of assay: cell-based. Here is the method:
For co-culture experiments on intercellular pANXA2/ANXA2 transfer, fibroblasts (FB) (5×10^4 cells/well) were seeded on a 35-mm glass-bottom Petri dish (MarTek Cor. Ashland, MA, USA) overnight before seeding of 5×10^4 of cancer cells and further culture overnight before the experiment. LS301 (1 μM) was incubated with co-cultures of FB and ANXA2-YFP transfected HL60 cells, co-cultures of FB and wild-type HL60 cells, or co-cultures of FB and 4T1-GFP cells at 37° C. for 3 hours and then washed twice with 0.01 M PBS (pH 7.4). Then, the cells were fixed with 4% paraformaldehyde for 10 minutes.

For assay [3], the system named is lysates of insulin-stimulated, pANXA2-expressing 4T1 cells. The experiment in a line: Binding to lysates of insulin-stimulated 4T1 cells. Also on record: species or system murine. Particulars: read-out: apparent Kd, 4T1 cell lysates. Here is the method: MST was performed using the Monolith NT.115 (Nanotemper Technologies, Munich, Germany). The appropriate agent(s) and LS301 stock samples were denatured in MST-1 buffer (50 mM Tris-HCl, pH 7.4; 150 mM NaCl; 10 mM MgCl2; 2% DMSO; 0.1% Tween-20; 4% SDS, 4 mM dithiothreitol (DTT)) at 97° C. for 10 min. Fluorescence was assessed in MST-2 buffer (50 mM Tris-HCl, pH 7.4; 150 mM NaCl; 10 mM MgCl2). The protein was prepared in MST-2 buffer, and 20 μL serial dilutions were made with protein concentration ranging from 3.05 pM to 50 nM (pANXA2) or 3.81 pM to 62.5 nM (ANXA2). All samples were loaded into NT.115 standard capillaries. The analysis was performed at 37° C., 30% LED power, 60% MST power, and a constant LS301 concentration of 20 nM. The apparent Kd values were calculated from fragment concentration-dependent changes in normalized fluorescence (Fraction Bound) of LS301 after 5 seconds of thermophoresis based on mass action law using the MO Affinity Analysis v2.3 software.
For Western blot analysis of insulin/PP2-induced change in cellular pANXA2 levels, 4T1 cells were treated with insulin or PP2 as above, lysed, and subjected to SDS-PAGE analysis. […]

A further assay concerns the target pANXA2 (Homo sapiens, UniProt P07355). The experiment in a line: Microscale thermophoresis (MST), pANXA2 binding. The following applies: read-out: apparent Kd, pANXA2.
Source text: as §1, §2

Sequence of pANXA2 (P07355 2-339 limits assumed): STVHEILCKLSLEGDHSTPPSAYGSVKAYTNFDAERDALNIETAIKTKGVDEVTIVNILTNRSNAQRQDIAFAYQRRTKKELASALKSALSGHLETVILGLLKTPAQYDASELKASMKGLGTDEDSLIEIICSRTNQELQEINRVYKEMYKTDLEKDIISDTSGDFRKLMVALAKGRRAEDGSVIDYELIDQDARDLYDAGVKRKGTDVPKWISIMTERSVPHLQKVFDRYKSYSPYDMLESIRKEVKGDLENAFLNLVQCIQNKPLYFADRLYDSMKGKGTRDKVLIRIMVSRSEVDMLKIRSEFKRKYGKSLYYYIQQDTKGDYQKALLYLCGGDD

Regarding `CC1(C)C(/C=C/C=C/C=C/C=C2/N(CCC(=O)N[C@@H]3CSSC[C@@H](C(=O)N[C@@H](CCCCN)C(=O)O)NC(=O)[C@@H]4CCCN4C(=O)[C@H](CO)NC(=O)[C@H](CC(=O)O)NC(=O)[C@H](CCCNC(=N)N)NC(=O)CNC3=O)c3ccc4ccccc4c3C2(C)C)=[N+](CCC(=O)[O-])c2ccc3ccccc3c21` [LS301, cypate-cyclic (DCys-Gly-Arg-Asp-Ser-Pro-Cys)-Lys-OH] (X1-[dC]GRDSPCK-OH; disulfide 1-7), the Kd on ANXA3 was 6.13 ± 0.28 nM; in assay [1], 5.67 ± 2.4 nM; on ANXA2 it was 0.389 ± 0.015 nM; in assay [3], 0.017 ± 0.004 nM; on pANXA2 it was 0.075 ± 0.002 nM. In addition, the uptake in co-culture result in assay [2] was “LS301 uptake by tumor cells and fibroblasts”.
